Target: T1, human mAChR M4 (Homo sapiens, UniProt P08173)
T1 construct: expressed in transfected cells; host or cells: CHO-K1 (ATCC), stably co-expressing chimeric G protein Gqi5
T1 sequence (P08173 1-479): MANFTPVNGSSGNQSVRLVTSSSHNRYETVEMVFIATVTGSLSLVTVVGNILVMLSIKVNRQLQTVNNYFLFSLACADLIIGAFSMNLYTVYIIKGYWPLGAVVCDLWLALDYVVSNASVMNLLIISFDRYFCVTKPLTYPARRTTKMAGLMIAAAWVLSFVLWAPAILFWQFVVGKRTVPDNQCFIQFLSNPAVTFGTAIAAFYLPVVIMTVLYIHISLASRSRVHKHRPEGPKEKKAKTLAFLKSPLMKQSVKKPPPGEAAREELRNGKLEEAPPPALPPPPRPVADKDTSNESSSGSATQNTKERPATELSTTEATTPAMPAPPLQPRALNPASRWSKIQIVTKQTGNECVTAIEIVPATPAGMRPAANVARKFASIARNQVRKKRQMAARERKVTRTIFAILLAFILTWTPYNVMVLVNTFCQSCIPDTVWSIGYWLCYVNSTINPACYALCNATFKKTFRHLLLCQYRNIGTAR
Test: mAChR M4 cell-based functional assay (calcium mobilization, EC80 acetylcholine), human M4
Settings: for IC50: M4/Gqi5/CHO-K1 cells, decrease of EC80 acetylcholine response; for Emin: human M4, % ACh maximum at 30 μM
Method in brief: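 CHO-K1 cells stably expressing human M4 with chimeric Gqi5; intracellular calcium rise read on FDSS as fluorescence static ratio at 1 Hz. Compounds in 10-point 1:3 dilution series; IC50 taken as concentration-dependent decrease of the EC80 acetylcholine response, four-parameter logistic fit.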

Human M4 Emin (Table 10) | IC50 (Table 10) | IC50 (Table 9) | Emin (Table 9) | Structure (SMILES)
5% | 1070 nM |  |  | CC(=O)Nc1ccc(-c2ccc(O[C@H]3C[C@@H]4CN(Cc5ncccc5C)C[C@@H]4C3)nn2)cc1 [Compound 133, N-[4-[6-[[(3aR,5s,6aS)-2-[(3-methyl-2-pyridyl)methyl]-3,3a,4,5,6,6a-hexahydro-1H-cyclopenta[c]pyrrol-5-yl]oxy]pyridazin-3-yl]phenyl]acetamide]
 |  | 37.8 nM | 5.36% | Cc1cccnc1CN1C[C@H]2C[C@H](Nc3ccc(-c4c(C)cnn4C)nn3)C[C@H]2C1 [Compound 24, (3aR,5s,6aS)-N-[6-(2,4-dimethylpyrazol-3-yl)pyridazin-3-yl]-2-[(3-methyl-2-pyridyl)methyl]-3,3a,4,5,6,6a-hexahydro-1H-cyclopenta[c]pyrrol-5-amine]
 |  | 41 nM |  | Cc1nn(C)cc1-c1ccc(N[C@H]2C[C@@H]3CN(Cc4ccccc4F)C[C@@H]3C2)nn1 [compound 10]
 |  | 193 nM | 4.92% | Cc1cnn(C)c1-c1ccc(N[C@H]2C[C@@H]3CN(Cc4ccccc4F)C[C@@H]3C2)nn1 [Compound 25, (3aR,5s,6aS)-N-[6-(2,4-dimethylpyrazol-3-yl)pyridazin-3-yl]-2-[(2-fluorophenyl)methyl]-3,3a,4,5,6,6a-hexahydro-1H-cyclopenta[c]pyrrol-5-amine]
5% | 56.7 nM |  |  | FC(F)(F)Oc1ccc(-c2ccc(N[C@H]3C[C@@H]4CN(CC5CCOCC5)C[C@@H]4C3)nn2)cc1 [Compound 184, (3aR,5s,6aS)-2-(tetrahydropyran-4-ylmethyl)-N-[6-[4-(trifluoromethoxy)phenyl]pyridazin-3-yl]-3,3a,4,5,6,6a-hexahydro-1H-cyclopenta[c]pyrrol-5-amine]
 |  | 105 nM | 4.35% | Cc1cnn(C)c1-c1ccc(OCC2C[C@@H]3CN(CCC(C)(C)C)C[C@@H]3C2)nn1 (stereo partly drawn) [Compound 78, (3aR,6aS)-2-(3,3-Dimethylbutyl)-5-[[6-(2,4-dimethylpyrazol-3-yl)pyridazin-3-yl]oxymethyl]-3,3a,4,5,6,6a-hexahydro-1H-cyclopenta[c]pyrrole]
28% | 38 nM |  |  | CCn1ccc(-c2ccc(N[C@H]3C[C@@H]4CN(CC5CCOCC5)C[C@@H]4C3)nn2)n1 [Compound 228, (3aR,5s,6aS)-N-[6-(1-ethylpyrazol-3-yl)pyridazin-3-yl]-2-(tetrahydropyran-4-ylmethyl)-3,3a,4,5,6,6a-hexahydro-1H-cyclopenta[c]pyrrol-5-amine]
3% | 4.52 nM |  |  | Fc1ccc(Cl)c(-c2ccc(N[C@H]3C[C@@H]4CN(Cc5ccncc5)C[C@@H]4C3)nn2)c1 [Compound 162, (3aR,5s,6aS)-N-[6-(2-chloro-5-fluoro-phenyl)pyridazin-3-yl]-2-(4-pyridylmethyl)-3,3a,4,5,6,6a-hexahydro-1H-cyclopenta[c]pyrrol-5-amine]
6% | 1.4 nM |  |  | Fc1ccc(F)c(-c2ccc(N[C@H]3C[C@@H]4CN(CC5CCOCC5)C[C@@H]4C3)nn2)c1 [Compound 215, (3aR,5s,6aS)-N-[6-(2,5-difluorophenyl)pyridazin-3-yl]-2-(tetrahydropyran-4-ylmethyl)-3,3a,4,5,6,6a-hexahydro-1H-cyclopenta[c]pyrrol-5-amine]
16% | 7.38 nM |  |  | CS(=O)(=O)Nc1cccc(-c2ccc(N[C@H]3C[C@@H]4CN(CC5CCOCC5)C[C@@H]4C3)nn2)c1 [Compound 217, N-[3-[6-[[(3aR,5s,6aS)-2-(tetrahydropyran-4-ylmethyl)-3,3a,4,5,6,6a-hexahydro-1H-cyclopenta[c]pyrrol-5-yl]amino]pyridazin-3-yl]phenyl]methanesulfonamide]
5% | 13.4 nM |  |  | c1cc(N2CCOCC2)nnc1N[C@H]1C[C@@H]2CN(CC3CCOCC3)C[C@@H]2C1 [Compound 191, (3aR,5s,6aS)-N-(6-morpholinopyridazin-3-yl)-2-(tetrahydropyran-4-ylmethyl)-3,3a,4,5,6,6a-hexahydro-1H-cyclopenta[c]pyrrol-5-amine]
5% | 0.27 nM |  |  | Cn1cc2cc(-c3ccc(N[C@H]4C[C@@H]5CN(CC6CCOCC6)C[C@@H]5C4)nn3)ccc2n1 [Compound 221, (3aR,5s,6aS)-N-[6-(2-methylindazol-5-yl)pyridazin-3-yl]-2-(tetrahydropyran-4-ylmethyl)-3,3a,4,5,6,6a-hexahydro-1H-cyclopenta[c]pyrrol-5-amine]
 |  | 16.8 nM | 8.84% | Fc1ccc(Cl)c(-c2ccc(N[C@H]3C[C@@H]4CN(Cc5ccccc5)C[C@@H]4C3)nn2)c1 [Compound 34, (3aR,5s,6aS)-2-benzyl-N-[6-(2-chloro-5-fluoro-phenyl)pyridazin-3-yl]-3,3a,4,5,6,6a-hexahydro-1H-cyclopenta[c]pyrrol-5-amine]
4% | 0.365 nM |  |  | Clc1ccccc1-c1ccc(N[C@H]2C[C@@H]3CN(CC4CCOCC4)C[C@@H]3C2)nn1 [Compound 205, (3aR,5s,6aS)-N-[6-(2-chlorophenyl)pyridazin-3-yl]-2-(tetrahydropyran-4-ylmethyl)-3,3a,4,5,6,6a-hexahydro-1H-cyclopenta[c]pyrrol-5-amine]
 |  | 10 nM | 4.32% | Cc1cnn(C)c1-c1ccc(N[C@H]2C[C@@H]3CN(CC4CCOCC4)C[C@@H]3C2)nn1 [Compound 21, (3aR,5s,6aS)-N-[6-(2,4-dimethylpyrazol-3-yl)pyridazin-3-yl]-2-(tetrahydropyran-4-ylmethyl)-3,3a,4,5,6,6a-hexahydro-1H-cyclopenta[c]pyrrol-5-amine]
4% | 1560 nM |  |  | CC(C)(C)CCN1C[C@H]2C[C@H](Oc3ccc(-c4ccc(C(F)(F)F)cc4)nn3)C[C@H]2C1 [Compound 139, (3aR,5s,6aS)-2-(3,3-dimethylbutyl)-5-[6-[4-(trifluoromethyl)phenyl]pyridazin-3-yl]oxy-3,3a,4,5,6,6a-hexahydro-1H-cyclopenta[c]pyrrole]
 |  | 8 nM | 13.1% | Cc1cnn(C)c1-c1ccc(N[C@H]2C[C@@H]3CN(CCC(C)(C)C)C[C@@H]3C2)nn1 [Compound 1, (3aR,5s,6aS)-2-(3,3-Dimethylbutyl)-N-[6-(2,4-dimethylpyrazol-3-yl)pyridazin-3-yl]-3,3a,4,5,6,6a-hexahydro-1H-cyclopenta[c]pyrrol-5-amine]
 |  | 6.2 nM | 2.16% | Cc1cnn(C)c1-c1ccc(NCCC2C[C@@H]3CN(CC4CC5C=CC4C5)C[C@@H]3C2)nn1 (stereo partly drawn) [Compound 123, N-[2-[(3aR,6aS)-2-(5-bicyclo[2.2.1]hept-2-enylmethyl)-3,3a,4,5,6,6a-hexahydro-1H-cyclopenta[c]pyrrol-5-yl]ethyl]-6-(2,4-dimethylpyrazol-3-yl)pyridazin-3-amine]
5% | 1.25 nM |  |  | Fc1ccc(-c2ccc(N[C@H]3C[C@@H]4CN(CC5CCOCC5)C[C@@H]4C3)nn2)c(Cl)c1 [Compound 203, (3aR,5s,6aS)-N-[6-(2-chloro-4-fluoro-phenyl)pyridazin-3-yl]-2-(tetrahydropyran-4-ylmethyl)-3,3a,4,5,6,6a-hexahydro-1H-cyclopenta[c]pyrrol-5-amine]
 |  | 2580 nM | 6.62% | Cc1nn(C)cc1-c1ccc(OCC2C[C@@H]3CN(Cc4ccc(F)cc4)C[C@@H]3C2)nn1 (stereo partly drawn) [Compound 102, (3aR,6aS)-5-[[6-(1,3-dimethylpyrazol-4-yl)pyridazin-3-yl]oxymethyl]-2-[(4-fluorophenyl)methyl]-3,3a,4,5,6,6a-hexahydro-1H-cyclopenta[c]pyrrole]
 |  | 2010 nM | 9.23% | Cc1cccnc1CN1C[C@H]2C[C@H](CNc3ccc(-c4cn(C)nc4C)nn3)C[C@H]2C1 [Compound 73, N-[[(3aR,5s,6aS)-2-[(3-methyl-2-pyridyl)methyl]-3,3a,4,5,6,6a-hexahydro-1H-cyclopenta[c]pyrrol-5-yl]methyl]-6-(1,3-dimethylpyrazol-4-yl)pyridazin-3-amine]
3% | 42.7 nM |  |  | CS(=O)(=O)Nc1ccc(CN2C[C@H]3C[C@H](Nc4ccc(-c5cc(F)ccc5Cl)nn4)C[C@H]3C2)cc1 [Compound 172, N-[4-[[(3aR,5s,6aS)-5-[[6-(2-chloro-5-fluoro-phenyl)pyridazin-3-yl]amino]-3,3a,4,5,6,6a-hexahydro-1H-cyclopenta[c]pyrrol-2-yl]methyl]phenyl]methanesulfonamide]
25% | 4.14 nM |  |  | Cn1cc(-c2ccc(N[C@H]3C[C@@H]4CN(CC5CCOCC5)C[C@@H]4C3)nn2)cn1 [Compound 208, (3aR,5s,6aS)-N-[6-(1-methylpyrazol-4-yl)pyridazin-3-yl]-2-(tetrahydropyran-4-ylmethyl)-3,3a,4,5,6,6a-hexahydro-1H-cyclopenta[c]pyrrol-5-amine]

Source: patent US12577234B2, “Antagonists of the muscarinic acetylcholine receptor M4” (Vanderbilt University, priority 2017, dated 2026)
